The values that follow come from patent US20240197712A1, “TGF-BETA INHIBITION FOR IMMUNODEFICIENCY VIRUS REACTIVATION FROM LATENCY, ENHANCEMENT OF IMMUNODEFICIENCY VIRUS-SPECIFIC RESPONSES AND IMMUNODEFICIENCY VIRUS CURE” (Northwestern University, priority 2022, published 2024).

The subject of assay [1] is U1 cells. As to the kind of experiment: DC-driven HIV reactivation from U1 cells (moDC co-culture). In kind it is cell-based. The following applies: moDCs treated with TGF-β1 10 ng/ml for last 2 days, with or without galunisertib; 18 hrs co-culture. As for the experimental part:
(§1) CD14^+ cells were isolated from PBMC using the Miltenyi CD14^+ beads. Monocyte-derived DCs (moDCs) were obtained from CD14+ cells cultured in GM-CSF and IL-4 as previously described (55). At day 4 of moDCs differentiation, TGF-β1 (10 ng/ml R&D systems) was added to the moDCs to generate the TGF-β-DCs (or both TGF-β1 and galunisertib). At day 6, 2 days after TGF-1 addition, moDCs were phenotyped (in 3 donors; See Table 2 for antibodies list) and co-cultured with eFluor670 (eBioscience)-labelled U1 at 3:1 U1:DC ratio (5 donors). After 18 hrs of co-culture, cells were stained for p24 intracellularly as described above.

Assay [2] relates to U1 cells. Description: PMA-induced HIV reactivation in U1 cells, intracellular p24 staining. Conditions: U1 cells. In kind it is cell-based. As for the experimental part: ACH2 cells and U1 cells were obtained through the NIH HIV Reagent Program, Division of AIDS, NIAID, NIH (contributed by Dr. Thomas Folks). Cells ([…]) were cultured in triplicates in RPMI with 10% FBS and Pen/Strep in presence of TGF-β1 (10 ng/ml R&D systems), TGF-β1 and galunisertib (1 μM MedChemExpress), galunisertib alone or mock treated. In the HIV latency reactivation conditions, PMA (Phorbol 12-myristate 13-acetate, SigmaAldrich) was added at 100 ng/ml together with galunisertib or TGF-β1. After 18 hrs, cells were stained intracellularly for p24 using the KC57 antibody (NIH HIV Reagent Program) as previously described (74).

A further assay deals with ACH-2 cells. Description: PMA-induced HIV reactivation in ACH-2 cells, intracellular p24 staining. In kind it is cell-based. As for the experimental part: ACH2 cells and U1 cells were obtained through the NIH HIV Reagent Program, Division of AIDS, NIAID, NIH (contributed by Dr. Thomas Folks). […] In the HIV latency reactivation conditions, PMA (Phorbol 12-myristate 13-acetate, SigmaAldrich) was added at 100 ng/ml together with galunisertib or TGF-β1. After 18 hrs, cells were stained intracellularly for p24 using the KC57 antibody (NIH HIV Reagent Program) as previously described (74).

Another assay relates to moDCs. As to the kind of experiment: moDC phenotyping by flow cytometry. In kind it is cell-based, human. Conditions: moDCs generated in the presence of TGF-β1. As for the experimental part: as §1
(Flow cytometry measures light scatter and fluorescence of single cells or particles in a stream.)

The test system of the next assay is primary CD4+ T cells. Description: Primary CD4+ T cell model of HIV-1 latency, p24 ICS. In kind it is cell-based, human. Conditions: primary CD4+ T cells infected with HIV ADA; PMA 100 ng/ml; TGF-β1 10 ng/ml or galunisertib 1 μM. As for the experimental part:
Next, the impact of TGF-β1 on a primary model of HIV-1 latency was tested using freshly isolated CD4+ T cells. The experiment was based on the model by Berkhout and colleagues (50) with some modifications (FIG. 1F). Specifically, CD4+ T cells were isolated from HIV-1 uninfected, de-identified donor PBMC and activated them with PHA and IL-2 for 3 days before infection via spinoculation with HIV ADA. After extensive wash of the viral inoculum, cells were cultured 48 hrs in presence of T20 (enfuvirtide) to avoid viral spread beyond the cells with initial integrations. The overall initial infection achieved was very low despite the spinoculation step (˜0.1% of p24-gag+ cells, FIGS. 3A-3B).
Blood from de-identified donors was obtained from the New York Blood Bank and used as source of CD4 T cells for the primary model of HIV latency in vitro. Total CD4+ T cells were isolated with the CD4 T cells isolation kit (Miltenyi) and activated with 5 μg/ml of PHA and 50 U/ml of IL-2 for 3 days. After washing out the PHA, cells were infected with 200TCID50 of HIV-ADA (NIH HIV Reagent Program) in 12 or 24 wells/plates and spinoculated at 1200 g for 2 hrs at 25° C. After additional 3 hrs of incubation at 37° C., viral inoculum was washed and cells plated in presence of T20 (Enfurtivide acetate salt, 1 μM NIH AIDS reagent program). […]

For “TGF-β1: exogenous TGF-β1 cytokine (R&D systems) added to cultures at 10 ng/ml”, the “frequency of p24-gag+ U1 cells in cocultures with TGF-β1-treated DCs versus untreated DCs” value in the assay with U1 cells [1] is “significantly less”. In addition, the “frequency of p24-gag+ cells in unstimulated cultures” value with U1 cells [2] (no PMA, TGF-β1 10 ng/ml or galunisertib 1 μM alone) was “below the baseline level”. Further, the “reduction of the PMA driven increase in the frequency of p24-gag+ cells” value with U1 cells [2] (PMA 100 ng/ml, TGF-β1 10 ng/ml, 18 hrs) is on record as roughly 20%. Besides, in the assay on ACH-2 cells (ACH-2 cells, PMA 100 ng/ml, TGF-β1 10 ng/ml), the “decrease of the frequency of p24-gag+ cells in PMA-stimulated cultures” value is roughly 20%. Also, in the assay with ACH-2 cells (ACH-2 cells, TGF-β1 10 ng/ml), the “baseline p24-gag levels in absence of PMA” value was “smaller but consistent decrease”. Besides, the “effect on p24+ cells in X-Vivo 15 medium without FBS” value with ACH-2 cells (control experiments, U1 and ACH-2, no FBS) is given as “more pronounced”. Besides, in the assay with moDCs, the “DEC-205 expression on moDCs” value is “significantly lower”. Besides, in the assay with primary CD4+ T cells, the “PMA-induced frequency of p24-gag+ cells” value was “significantly inhibited”.
